From US8669256B2, “Substituted thieno[2,3-b]pyrazine compounds as modulators of B-Raf kinase activity” (Merck Sharp & Dohme B.V., priority 2010, dated 2014)
Read-outs that look alike come from different tables or passages of the source.

Key:
[1] = tested on: phosphorylation of ERK1/2 in A375 cells containing mutant B-Raf (V600E); experiment: Phospho-ERK FACE assay in A375 (B-Raf mutated) melanoma cell line; format: cell-based; settings: Homo sapiens, A-375, A375 cells, 2 hours incubation, read-out: IC50, A375 melanoma phospho-ERK assay
Outline: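 A375 cells (B-Raf V600E), serum-starved overnight in 0.1% FBS, exposed to compounds for 2 hours at 37° C (1% DMSO). Fixed cells probed with anti-phospho-ERK1/2 (Thr202/Tyr204, Thr185/Tyr187) antibody overnight at 4° C, total ERK on a separate plate. HRP-secondary chemiluminescence read-out.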

[2] = target: T1, GST-tagged human recombinant active B-Raf (Δ1-415) (Homo sapiens, UniProt P15056); experiment: B-Raf kinase activity, IMAP coupled assay (B-Raf/MEK1/ERK2, fluorescence polarization); format: biochemical; settings: bounds also given as pIC50 (>6, >7, >8); 60 min pre-incubation with compound, ATP 50 μM; read-out: IC50, B-Raf IMAP assay
T1 construct: GST; purchased Upstate/Millipore
Outline: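 Coupled cascade: GST-B-Raf (Δ1-415; 0.2 U/ml) pre-incubated with compound (1% DMSO) 60 min at room temperature, then unactive MEK1 (64 ng/ml), unactive ERK2 (600 ng/ml), 50 nM fluorescein-Erktide and 50 μM ATP added for 60 min at 30 °C, pH 7.2 Tris buffer. Phosphopeptide captured on IMAP beads (60 min); fluorescence polarization read.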

[3] = between 1 μM and 100 nM (6<pIC50<7)

T1 sequence (P15056 416-766, stated change not applied): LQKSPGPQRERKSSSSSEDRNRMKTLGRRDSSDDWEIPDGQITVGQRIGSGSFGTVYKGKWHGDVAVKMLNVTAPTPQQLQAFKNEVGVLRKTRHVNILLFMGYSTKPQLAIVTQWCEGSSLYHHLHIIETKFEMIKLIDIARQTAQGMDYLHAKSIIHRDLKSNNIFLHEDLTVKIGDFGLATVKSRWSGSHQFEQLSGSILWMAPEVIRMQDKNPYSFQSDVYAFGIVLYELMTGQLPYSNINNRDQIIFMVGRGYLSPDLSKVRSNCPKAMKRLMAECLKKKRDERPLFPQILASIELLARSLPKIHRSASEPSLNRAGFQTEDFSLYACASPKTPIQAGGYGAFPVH

Row | IC50 [1, 3] | IC50 [2] | IC50 ([1]; class between 10 μM and 1 μM (5<pIC50<6)) | IC50 ([1]; class given as below 100 nM (pIC50>7)) | Structure (SMILES)
1 | 100 to 1000 nM | < 10 nM |  |  | Cc1ccc(NC(=O)c2cccc(C(C)(C)C#N)c2)cc1NC(=O)c1cc2ncc(NCCN3CCOCC3)nc2s1 [Example 63, N-(5-(3-(2-cyanopropan-2-yl)benzamido)-2-methylphenyl)-3-(2-morpholinoethylamino)thieno[2,3-b]pyrazine-6-carboxamide]
2 | 100 to 1000 nM | < 10 nM |  |  | COCCNc1cnc2cc(C(=O)Nc3cc(NC(=O)c4cccc(C(C)(C)C#N)c4)ccc3C)sc2n1 [Example 65, N-(5-(3-(2-cyanopropan-2-yl)benzamido)-2-methylphenyl)-3-(2-methoxyethylamino)thieno[2,3-b]pyrazine-6-carboxamide]
3 |  | < 10 nM | 1000 to 10000 nM |  | Cc1ccc(NC(=O)c2cccc(C(C)(C)C#N)c2)cc1NC(=O)c1cc2ncc(NCCO)nc2s1 [Example 66, N-(5-(3-(2-cyanopropan-2-yl)benzamido)-2-methylphenyl)-3-(2-hydroxyethylamino)thieno[2,3-b]pyrazine-6-carboxamide]
4 | 100 to 1000 nM | < 100 nM |  |  | CCNc1cnc2cc(C(=O)Nc3cc(NC(=O)c4cccc(C(C)(C)C#N)c4)ccc3C)sc2n1 [Example 67, N-(5-(3-(2-cyanopropan-2-yl)benzamido)-2-methylphenyl)-3-(ethylamino)thieno[2,3-b]pyrazine-6-carboxamide]
5 | 100 to 1000 nM | < 100 nM |  |  | Cc1ccc(NC(=O)c2cccc(C(C)(C)C#N)c2)cc1NC(=O)c1cc2ncc(-c3cccnc3)nc2s1 [Example 68, N-(5-(3-(2-cyanopropan-2-yl)benzamido)-2-methylphenyl)-3-(pyridin-3-yl)thieno[2,3-b]pyrazine-6-carboxamide]
6 |  | < 10 nM |  | < 100 nM | Cc1ccc(NC(=O)c2cccc(C(C)(C)C#N)c2)cc1NC(=O)c1cc2ncc(-c3ccncc3)nc2s1 [Example 69, N-(5-(3-(2-cyanopropan-2-yl)benzamido)-2-methylphenyl)-3-(pyridin-4-yl)thieno[2,3-b]pyrazine-6-carboxamide]
7 | 100 to 1000 nM | < 100 nM |  |  | Cc1cnc2cc(C(=O)Nc3cc(NC(=O)c4cccc(C(C)(C)C#N)c4)ccc3C)sc2n1 [Example 70, N-(5-(3-(2-cyanopropan-2-yl)benzamido)-2-methylphenyl)-3-methylthieno[2,3-b]pyrazine-6-carboxamide]
8 | 100 to 1000 nM | < 100 nM |  |  | Cc1ccc(NC(=O)c2cccc(C(C)(C)C#N)c2)cc1C(=O)Nc1cc2nccnc2s1 [Example 73, 5-(3-(2-cyanopropan-2-yl)benzamido)-2-methyl-N-(thieno[2,3-b]pyrazin-6-yl)benzamide]
